Experimental data taken from patent US12070457B2, “Substituted pyridines, pyridazines, pyrimidines, and 1,2,3-triazines as bruton's tyrosine kinase inhibitors” (HUTCHISON MEDIPHARMA LIMITED, priority 2020, dated 2024).
pIC50: −log10 of the molar value.

How the values were obtained:
[1] = biological target: BTK recombinant protein (Homo sapiens (Human), UniProt Q06187); experiment: Determination of biochemical BTK (Z'-LYTE kinase assay)
Description: Example 2 Determination of Biochemical BTK
(§1) 1. Reagents and Materials
• BTK recombinant protein: Invitrogen, Cat #PV3363; • Z′-LYTE® kinase test kit-tyrosine 1 peptide: Invitrogen, Cat #PV3190; • 384-well low-flange black flat-bottomed polystyrene NBS microplate, no lid, no sterilization: Corning, Cat #3575; • 96-well polystyrene conical-bottomed MicroWell™ plate, sealed with a lid: Thermo Scientific™ Nunc™, Cat #277143; • Envision multi-mode plate reader: PerkinElmer; • Mixmate® shaker: Eppendorf; • TS-2102 shaking incubator: TENSUC; 2. Methods
Z′-LYTE® biochemical assay employs a fluorescence resonance energy transfer (FRET)-based, coupled-enzyme format and is based on the differential sensitivity of phosphorylated and non-phosphorylated peptides to proteolytic cleavage. Both ends of the short peptide substrate are labeled with two fluorescent groups to form a FRET paired combination. In the primary reaction (the Kinase Reaction), the kinase transfers the γ-phosphate of ATP to a single […] residue on the short peptide substrate. In the secondary reaction (the development reaction), the non-phosphorylated short peptides were recognized and cleaved by a site-specific protease (the development reagent). Phosphorylated short peptides can resist such cleavage. Cleavage of short peptides can disrupt the donor (such as coumarin) and receptor fluorophores (fluorescein) on the short peptides, while the phosphorylated short peptides can maintain FRET. The calculation method of the ratio is as follows, and the ratio of the respective emission signals generated by the donor fluorophores emitted (after excitation at 400 nm) to the receptors is calculated. Emission signal ratio=emitted light by coumarin (445 nm)/emitted light by fluorescein (520 nm). If the FRET short peptide is phosphorylated (such as no kinase inhibitor), the emitted light ratio will remain in a lower level. If the FRET short peptide is non-phosphorylated (such as kinase inhibitor), the emitted light ratio will be in a higher level. In this way, the inhibitory effects of different compound inhibitors on BTK kinase activity would be distinguished.
The experiment were carried out according to the instructions of the Z′-LYTE® kinase test kit-tyrosine 1 peptide. Reagent preparation: 1.33× kinase buffer: 5× kinase buffer was diluted with water to 1.33× kinase buffer; an enzyme solution: the kinase was dissolved in 1.33× kinase buffer with the final working concentration being 3.32 nM; a short peptide solution: a short peptide stock solution (1 mM dissolved in DMSO) was dissolved in 1.33× kinase buffer with the final working concentration being 2 μM; Z′-LYTE Tyr01 phosphorylated short peptide solution, 0.6 μl of stock solution (1 mM dissolved in DMSO) was dissolved in 149.4 μl of 1.33× kinase buffer; an ATP solution: an ATP stock solution (10 mM aqueous solution) was dissolved in 1.33× kinase buffer with the final working concentration being 32 μM; a color-developing solution: color-developing solution B was dissolved in color-developing buffer with the final working concentration being 1× color-developing solution; 4× compound preparation: the compound was diluted in 3-fold gradient concentration to finally obtain 4% DMSO aqueous solution containing different concentrations of the compound, with the final working concentration being 3000, 1000, 333.33, 111.11, 37.04, 12.35, 4.12, 1.37 nM, 8 concentration points in total.
Specific steps of the experiment: In the experiment, there were three control groups, each with 8 replicate wells, which were C1 100% inhibition group (no ATP), C2 0% inhibition group (with ATP), and C3 100% phosphorylation group, respectively. 2.5 μl of serially diluted compound was added to each well of a 384-well plate, with double replicate wells, and 4% DMSO solution was added to wells C1, C2, and C3. […]

[2] = biological target: phosphorylated BTK in Ramos cells (Homo sapiens (Human), UniProt Q06187); experiment: Determination of phosphorylated BTK in Ramos cells (BTK phospho-Y223 HTRF); type: cell-based
Method: Determination of Phosphorylated BTK in Ramos Cells
as §1
• Ramos cells: Ramos cells were purchased from American Standard Biological Collection Center ATCC Cell Bank, PRMI 1640 medium containing L-glutamine, 1.5 g/L of sodium bicarbonate, 2.383 g/L of HEPES solution, 0.11 g/L of sodium pyruvate and 4.5 g/L of glucose was used, added 10% fetal bovine serum FBS, and placed in a 5% C02, 37° C. cell incubator for normal culture; • PRMI 1640 medium: GIBCO, Cat #A10491-01; • Fetal bovine serum (FBS): GIBCO, Cat #100100-147; • Hank's balanced salt solution (HBSS): GIBCO, Cat #14025-092; • Immunoglobulin M (IgM): Jackson Immuno, Cat #109-006-129; • 3% hydrogen peroxide (3% H2O2): Sigma, Cat #88597-100 ML-F; • Phosphorylated BTK HTRF detection kit (BTK phospho-Y223 HTRF kit): Cisbio, Cat #63ADK017PEH; • Microwell plate reader: Envision, Perkin Elmer; • 384-well plate CulturPlate™384: Perkin Elmer, Cat #6007680 • 96-well plate: Corning, Cat #3799. 2. Methods
Ramos cells were starved in PRMI 1640 medium with 1% FBS for 2 hours. The starved Ramos cells were diluted with Hank's balanced salt solution to 5.0×10^6 cells/ml, seeded in a 96-well plate with 20 μL/well (1.0×10^5 cells/well), and cultured in a 5% CO2, 37° C. cell incubator. […]
The 384 well plate incubated overnight in the constant temperature incubator was taken out to detect the luminescence signal using the Envision microwell plate reader at the […]. The reading value at 665 nm/615 nm of each well multiplied by 104 was used as the signal value of each well.
The average signal value of the wells supplemented with the mixed solution of human immunoglobulin M (final concentration was 10 μg/mL) and hydrogen peroxide (final concentration was 3.3 mM) without the test compound was regarded as the high value, and the average signal value of the wells without immunoglobulin M stimulation and without the test compound was regarded as the low value. According to the signal value in each well, the inhibition ratio (%) of each concentration of compounds was calculated, and the 205 model in XL-Fit 5.3 software (ID Business Solutions Limited) was used to obtain an IC50 value. […]

[3] = tested on: B cell activation in mice whole blood (BTK target); experiment: In vivo inhibitory effect on BTK target (anti-IgD antibody-induced B cell activation in mice whole blood); parameters: species or system mouse
Method: Objects: B cells in mice whole blood were induced and activated by the anti-IgD antibody, and the inhibitory effect of the compound of the present invention on B cell activation in vivo was studied, so as to determine the inhibitory effect of the compound of the present invention on the BTK target in vivo.
Methods: C57BL/6 mice (female, 18-20 g, purchased from Shanghai Lingchang Biotechnology Co., Ltd.) were grouped according to Table 2.
The animals of each group were administered, then were placed in CO2 for anesthesia at designated time points, blood samples were taken from rats via retro-orbital bleeding, and heparin was used for anticoagulation; 90 μL of whole blood was taken from mice of each group, and added to a 96 well culture plate, and anti-mouse IgD antibody (BIO-RAD, Cat #MCA4693) was added to each well to a final concentration of 0.01 μg/μL (respectively for the each drug-treated group and anti-IgD antibody-inducted vehicle group); in addition, 90 μL of whole blood of mice in the vehicle group was taken and added to the 96-well culture plate, and PBS (phosphate buffer, GIBCO, Cat #C20012500BT) was added to each well to a final concentration of 0.01 μg/μL (namely, the vehicle control group); Each group was mixed well and incubated in a 37° C./5% CO2 incubator for 4 hours. In addition, the blood of mice in the drug-treated group was centrifuged to separate plasma for blood concentration analysis.
B cell activation ratio=percentage of CD69^+CD19^+ double positive B cells/percentage of CD19^+ single positive B cells
All data are represented by mean±standard error. For the comparison between each drug-treated group and the anti-IgD antibody-induced vehicle group, p value was calculated by Graphpad Prism using one-way ANOVA analysis of variance and Dunnett's test, and for the comparison between each drug-treated group, p value was calculated by using unpaired t test.

Sequence of BTK recombinant protein (Q06187 whole entry): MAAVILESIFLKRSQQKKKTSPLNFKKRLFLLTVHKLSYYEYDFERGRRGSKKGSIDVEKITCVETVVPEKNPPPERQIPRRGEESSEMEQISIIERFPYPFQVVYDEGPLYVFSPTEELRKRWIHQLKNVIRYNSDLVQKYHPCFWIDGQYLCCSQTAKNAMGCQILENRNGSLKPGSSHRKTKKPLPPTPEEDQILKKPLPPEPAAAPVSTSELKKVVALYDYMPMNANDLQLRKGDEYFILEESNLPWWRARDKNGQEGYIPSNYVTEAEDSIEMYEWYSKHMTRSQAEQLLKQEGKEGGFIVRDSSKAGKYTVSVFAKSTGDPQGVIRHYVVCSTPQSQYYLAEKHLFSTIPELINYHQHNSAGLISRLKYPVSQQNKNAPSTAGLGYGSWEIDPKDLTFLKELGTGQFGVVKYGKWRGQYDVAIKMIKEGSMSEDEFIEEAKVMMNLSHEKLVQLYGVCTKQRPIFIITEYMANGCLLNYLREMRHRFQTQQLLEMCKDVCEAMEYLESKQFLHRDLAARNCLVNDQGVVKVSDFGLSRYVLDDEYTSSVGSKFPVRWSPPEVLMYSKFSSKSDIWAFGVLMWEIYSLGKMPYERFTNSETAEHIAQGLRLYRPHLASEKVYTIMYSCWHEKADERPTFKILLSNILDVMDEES
Sequence of phosphorylated BTK in Ramos cells (Q06187 whole entry): as above

Row | pIC50 [1] | pIC50 [2] | SMILES | B cell activation ratio (the proportion of activated B cells to total B cells) ([3]; 5 mg/kg oral single, 16 h) | Inhibition ratio (%) ([3]; 5 mg/kg oral single, 16 h) | inhibition ratio on B cell activation ([3]; 5 mg/kg, after 16 hours of administration, anti-IgD antibody-induced, mice whole blood) [%]
1 | 7.92 | 8.10 | Cn1cc(-c2ccnc(-n3ccn4c5c(cc4c3=O)CC(C)(C)C5)c2CO)cc(Nc2ccc(N3CCN4CCOCC4C3)cn2)c1=O (racemic) [Compound 232] | – | – | –
2 | – | – | Cn1cc(-c2ccnc(-n3ccn4c5c(c(F)c4c3=O)CCCC5)c2CO)cc(Nc2cc3n(n2)CCOC3)c1=O [compound 176] | 13.9 | 48 | 48
